Assay results from the supplement of paper PMC10307832.

What was measured:
Test in all cases: relative viability (nuclei count vs DMSO), 5 days (fraction); higher = more cells survive
ABC-1 = test system: ABC-1
In short: (§1)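 Medians of duplicate plates are given as relative viability. That measure is the nuclei count in treated wells divided by the count in vehicle wells. Counts were taken on 4× images of lung cancer cell lines in 1536-well plates, 5 days after pin-tool dosing the day after seeding with one drug alone or a fixed anchor-drug dose plus five library-drug doses (not always all listed) in √10 steps.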

CAL-12T = test system: CAL-12T
In short: as §1

COR-L 105 = test system: COR-L 105
In short: as §1

ChaGo-K-1 = test system: ChaGo-K-1
In short: as §1

EMC-BAC-2 = test system: EMC-BAC-2
In short: as §1

EPLC-272H = test system: EPLC-272H
In short: as §1

HCC-15 = test system: HCC-15
In short: as §1

HCC-78 = test system: HCC-78
In short: as §1

HOP-62 = test system: HOP-62
In short: as §1

LXF-289 = test system: LXF-289
In short: as §1

NCI-H1666 = test system: NCI-H1666
In short: as §1

NCI-H1755 = test system: NCI-H1755
In short: as §1

## Clc1ccc(Nc2nnc(Cc3ccncc3)c3ccccc23)cc1 [Vatalanib] + CC(=O)c1c(C)c2cnc(Nc3ccc(N4CCNCC4)cn3)nc2n(C2CCCC2)c1=O [Palbociclib] (partner 0.5 µM)
ABC-1; first compound 0.04 µM
  relative viability: 0.662
ABC-1; first compound 0.1265 µM
  relative viability: 0.7
ABC-1; first compound 0.4 µM
  relative viability: 0.892
ABC-1; first compound 4 µM
  relative viability: 0.59
CAL-12T; first compound 0.04 µM
  relative viability: 0.409
CAL-12T; first compound 0.1265 µM
  relative viability: 0.312
CAL-12T; first compound 0.4 µM
  relative viability: 0.384
CAL-12T; first compound 1.265 µM
  relative viability: 0.345
CAL-12T; first compound 4 µM
  relative viability: 0.425
COR-L 105; first compound 0.04 µM
  relative viability: 0.404
COR-L 105; first compound 0.1265 µM
  relative viability: 0.369
COR-L 105; first compound 0.4 µM
  relative viability: 0.402
COR-L 105; first compound 1.265 µM
  relative viability: 0.441
COR-L 105; first compound 4 µM
  relative viability: 0.396
ChaGo-K-1; first compound 0.04 µM
  relative viability: 0.998
ChaGo-K-1; first compound 0.1265 µM
  relative viability: 0.885
ChaGo-K-1; first compound 0.4 µM
  relative viability: 0.945
ChaGo-K-1; first compound 1.265 µM
  relative viability: 0.969
ChaGo-K-1; first compound 4 µM
  relative viability: 0.961
EMC-BAC-2; first compound 0.04 µM
  relative viability: 0.545
EMC-BAC-2; first compound 0.1265 µM
  relative viability: 0.524
EMC-BAC-2; first compound 0.4 µM
  relative viability: 0.563
EMC-BAC-2; first compound 4 µM
  relative viability: 0.512
EPLC-272H; first compound 0.04 µM
  relative viability: 0.361
EPLC-272H; first compound 0.1265 µM
  relative viability: 0.344
EPLC-272H; first compound 0.4 µM
  relative viability: 0.372
EPLC-272H; first compound 1.265 µM
  relative viability: 0.315
EPLC-272H; first compound 4 µM
  relative viability: 0.358
HCC-15; first compound 0.04 µM
  relative viability: 0.711
HCC-15; first compound 0.1265 µM
  relative viability: 0.676
HCC-15; first compound 0.4 µM
  relative viability: 0.759
HCC-15; first compound 1.265 µM
  relative viability: 0.691
HCC-15; first compound 4 µM
  relative viability: 0.668
HCC-78; first compound 0.04 µM
  relative viability: 0.471
HCC-78; first compound 0.1265 µM
  relative viability: 0.459
HCC-78; first compound 0.4 µM
  relative viability: 0.473
HCC-78; first compound 1.265 µM
  relative viability: 0.422
HCC-78; first compound 4 µM
  relative viability: 0.485
HOP-62; first compound 0.04 µM
  relative viability: 0.459
HOP-62; first compound 0.1265 µM
  relative viability: 0.436
HOP-62; first compound 0.4 µM
  relative viability: 0.417
HOP-62; first compound 1.265 µM
  relative viability: 0.45
HOP-62; first compound 4 µM
  relative viability: 0.481
LXF-289; first compound 0.04 µM
  relative viability: 0.611
LXF-289; first compound 0.1265 µM
  relative viability: 0.544
LXF-289; first compound 0.4 µM
  relative viability: 0.599
LXF-289; first compound 1.265 µM
  relative viability: 0.585
LXF-289; first compound 4 µM
  relative viability: 0.556
NCI-H1666; first compound 0.04 µM
  relative viability: 0.646
NCI-H1666; first compound 0.1265 µM
  relative viability: 0.624
NCI-H1666; first compound 0.4 µM
  relative viability: 0.643
NCI-H1666; first compound 1.265 µM
  relative viability: 0.616
NCI-H1666; first compound 4 µM
  relative viability: 0.667
NCI-H1755; first compound 0.04 µM
  relative viability: 0.473
NCI-H1755; first compound 0.1265 µM
  relative viability: 0.474
NCI-H1755; first compound 0.4 µM
  relative viability: 0.457
NCI-H1755; first compound 1.265 µM
  relative viability: 0.445
NCI-H1755; first compound 4 µM
  relative viability: 0.425
